Test results from patent publication US9353093B2, “Indole-1-carboxamides as kinase inhibitors” (Allergan, Inc., priority 2014, dated 2016).
Where two headings read alike, the source gives them in different places.

Key:
[1] = test system: VEGFR2 in HUVEC (human umbilical vein endothelial cells); experiment: VEGFR2 Cellular Assay (FLIPR, VEGF induced increases in intracellular calcium); format: cell-based
Method: VEGFR2 Cellular Assay Automated FLIPR (Fluorometric Imaging Plate Reader) technology was used to screen for inhibitors of VEGF induced increases in intracellular calcium levels in fluorescent dye loaded endothelial cells. HUVEC (human umbilical vein endothelial cells) (Clonetics) were seeded in 384-well fibronectin coated black-walled plates overnight @37° C./5% CO2. Cells were loaded with calcium indicator Fluo-4 for 45 minutes at 37° C. Cells were washed 2 times (EIx405, Biotek Instruments) to remove extracellular dye. For screening, cells were pre-incubated with test agents for 30 minutes, at a single concentration (10 uM) or at concentrations ranging from 0.0001 to 10.0 uM followed by VEGF165 stimulation (10 ng/mL). Changes in fluorescence at 516 nm were measured simultaneously in all 384 wells using a cooled CCD camera. Data were generated by determining max-min fluorescence levels for unstimulated, stimulated, and drug treated samples. IC50 values for test compounds were calculated from % inhibition of VEGF stimulated responses in the absence of inhibitor.

[2] = biological target: purified cytoplasmic domain KDR protein (VEGFR2) (Homo sapiens (Human), UniProt P35968); experiment: VEGFR2 Kinase Assay; format: biochemical; conditions: 2.7 μM ATP, poly-Glu-Tyr (4:1) substrate, 15 minute incubation at 30° C.; read-out: Enzyme VEGFR2 IC50
Sequence of purified cytoplasmic domain KDR protein (VEGFR2) (P35968 786-1356): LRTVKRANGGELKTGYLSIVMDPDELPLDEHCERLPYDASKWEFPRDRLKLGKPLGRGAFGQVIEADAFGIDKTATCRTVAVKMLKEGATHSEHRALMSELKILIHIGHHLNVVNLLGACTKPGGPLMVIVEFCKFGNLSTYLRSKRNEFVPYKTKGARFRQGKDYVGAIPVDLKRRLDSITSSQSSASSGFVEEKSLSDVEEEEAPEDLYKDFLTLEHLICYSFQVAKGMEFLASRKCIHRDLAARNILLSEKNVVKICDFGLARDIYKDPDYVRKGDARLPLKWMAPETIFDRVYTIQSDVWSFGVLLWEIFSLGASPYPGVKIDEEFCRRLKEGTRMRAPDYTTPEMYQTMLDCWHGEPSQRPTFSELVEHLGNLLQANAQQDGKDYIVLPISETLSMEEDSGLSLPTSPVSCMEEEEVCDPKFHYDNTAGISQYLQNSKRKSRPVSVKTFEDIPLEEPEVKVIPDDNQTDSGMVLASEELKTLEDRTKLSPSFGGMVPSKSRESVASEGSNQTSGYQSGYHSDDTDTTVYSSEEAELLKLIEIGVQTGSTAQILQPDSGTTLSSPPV
Method: VEGFR2 Kinase Assay Biochemical KDR kinase assays were performed in 96 well microtiter plates that were coated overnight with 75 μg/well of poly-Glu-[…]:1) in 10 mM Phosphate Buffered Saline (PBS), pH 7.4. […] Reactions were carried out in 100 μL reaction volumes containing 2.7 μM ATP in kinase buffer (50 mM Hepes buffer pH 7.4, 20 mM MgCl2, 0.1 mM MnCl2 and 0.2 mM Na3VO4). […] Reactions were initiated by the addition 20 ul per well of kinase buffer containing 200-300 ng purified cytoplasmic domain KDR protein (BPS Bioscience, San Diego, Calif.). Following a 15 minute incubation at 30° C., the reactions were washed 2 mls per well PBS-T. 100 μl of a monoclonal anti-phosphotyrosine antibody-peroxidase conjugate diluted 1:10,000 in PBS-T was added to the wells for 30 minutes. Following a 2 mls per well wash with PBS-Tween-20, 100 μl of O-Phenylenediamine Dihydrochloride in phosphate-citrate buffer, containing urea hydrogen peroxide, was added to the wells for 7-10 minutes as a colorimetric substrate for the peroxidase. […] IC50 values for compound inhibition were calculated directly from graphs of optical density (arbitrary units) versus compound concentration following subtraction of blank values.

[3] = biological target: purified cytoplasmic domain PDGFR-b protein (PDGFRβ) (Homo sapiens (Human), UniProt P09619); experiment: PDGFRβ Kinase Assay; format: biochemical; conditions: 36 μM ATP, poly-Glu-Tyr (4:1) substrate, 60 minute incubation at 30° C.; read-out: Enzyme PDGFβ IC50
Sequence of purified cytoplasmic domain PDGFR-b protein (PDGFRβ) (P09619 554-1106): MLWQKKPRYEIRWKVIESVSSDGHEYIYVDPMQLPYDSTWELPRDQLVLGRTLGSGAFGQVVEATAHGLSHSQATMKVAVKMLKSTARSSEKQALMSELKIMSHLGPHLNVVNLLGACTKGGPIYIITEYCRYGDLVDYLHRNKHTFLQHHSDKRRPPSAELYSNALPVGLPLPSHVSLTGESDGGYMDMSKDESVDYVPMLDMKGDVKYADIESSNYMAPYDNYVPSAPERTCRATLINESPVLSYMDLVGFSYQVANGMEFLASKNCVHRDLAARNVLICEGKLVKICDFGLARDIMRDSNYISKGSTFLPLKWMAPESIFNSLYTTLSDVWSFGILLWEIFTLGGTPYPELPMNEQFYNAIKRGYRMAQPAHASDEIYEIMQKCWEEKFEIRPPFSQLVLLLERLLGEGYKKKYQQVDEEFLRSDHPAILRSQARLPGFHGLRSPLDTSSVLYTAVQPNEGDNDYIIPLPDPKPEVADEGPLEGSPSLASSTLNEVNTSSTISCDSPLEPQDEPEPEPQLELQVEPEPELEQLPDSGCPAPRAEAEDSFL
Method: Biochemical PDGFRβ kinase assays were performed in 96 well microtiter plates that were coated overnight with 75 μg of poly-Glu-Tyr (4:1) in 10 mM Phosphate Buffered Saline (PBS), pH 7.4. […] Reactions were carried out in 100 μL reaction volumes containing 36 μM ATP in kinase buffer (50 mM Hepes buffer pH 7.4, 20 mM MgCl2, 0.1 mM MnCl2 and 0.2 mM Na3VO4). […] Reactions were initiated by the addition 20 ul per well of kinase buffer containing 200-300 ng purified cytoplasmic domain PDGFR-b protein (Millipore). Following a 60 minute incubation at 30° C., the reactions were washed 2 mls per well PBS-T. 100 μl of a monoclonal anti-phosphotyrosine antibody-peroxidase conjugate diluted 1:10,000 in PBS-T was added to the wells for 30 minutes. Following a 2 mls per well wash with PBS-Tween-20, 100 μl of O-Phenylenediamine Dihydrochloride in phosphate-citrate buffer, containing urea hydrogen peroxide, was added to the wells for 7-10 minutes as a colorimetric substrate for the peroxidase. […] IC50 values for compound inhibition were calculated directly from graphs of optical density (arbitrary units) versus compound concentration following subtraction of blank values.

[4] = read-out: Receptor VEGFR2 IC50 (nM)

| SMILES | IC50 [1, 4] [nM] | IC50 [2] [nM] | IC50 [3] [nM] | IC50 ([1]; VEGF165 stimulation (10 ng/mL), 30 minutes pre-incubation, Fluo-4 calcium, read-out: Receptor VEGFR2 IC50) [nM] |
| --- | --- | --- | --- | --- |
| CCc1cccc(NC(=O)Nc2ccc(-c3cc4ccccc4n3C(N)=O)cc2)c1 [Example 1, 2-[4-({[(3-ethylphenyl)amino]carbonyl}amino)phenyl]-1H-indole-1-carboxamide] | 13 |  |  |  |
| COC(=O)c1ccc2cc(-c3ccc(NC(=O)Nc4cccc(C)c4)cc3)n(C(N)=O)c2c1 [Example 2, methyl 1-(aminocarbonyl)-2-[4-({[(3-methylphenyl)amino]carbonyl}amino)phenyl]-1H-indole-6-carboxylate] | 11 | 5 | 10 |  |
| Cc1cccc(NC(=O)Nc2ccc(-c3cc4ccccc4n3C(N)=O)cc2)c1 [Example 3, 2-[4-({[(3-methylphenyl)amino]carbonyl}amino)phenyl]-1H-indole-1-carboxamide] | 17 | 6 | 14 |  |
| NC(=O)n1c(-c2ccc(NC(=O)Nc3ccc(F)c(Cl)c3)cc2)cc2ccccc21 [Example 5, 2-[4-({[(3-chloro-4-fluorophenyl)amino]carbonyl}amino)phenyl]-1H-indole-1-carboxamide] |  |  | 19 |  |
| NC(=O)n1c(-c2ccc(NC(=O)Nc3cccc(C(F)(F)F)c3)cc2)cc2ccccc21 [Example 6, 2-{4-[({[3-(trifluoromethyl)phenyl]amino}carbonyl)amino]phenyl}-1H-indole-1-carboxamide] | 58 | 9 | 28 |  |
| Cc1ccc(F)c(NC(=O)Nc2ccc(-c3cc4ccccc4n3C(N)=O)cc2)c1 [Example 7, 2-[4-({[(2-fluoro-5-methylphenyl)amino]carbonyl}amino)phenyl]-1H-indole-1-carboxamide] | 41 | 9 | 20 |  |
| COc1cccc(NC(=O)Nc2ccc(-c3cc4ccccc4n3C(N)=O)cc2)c1 [Example 8, 2-[4-({[(3-methoxyphenyl)amino]carbonyl}amino)phenyl]-1H-indole-1-carboxamide] | 45 | 11 | 12 |  |
| NC(=O)n1c(-c2ccc(NC(=O)Nc3cc(C(F)(F)F)ccc3F)cc2)cc2ccccc21 [Example 9, 2-{4-[({[2-fluoro-5-(trifluoromethyl)phenyl]amino}carbonyl)amino]phenyl}-1H-indole-1-carboxamide] |  |  | 55 |  |
| NC(=O)n1c(-c2ccc(NC(=O)Nc3ccccc3)cc2)cc2ccccc21 [Example 10, 2-{4-[(anilinocarbonyl)amino]phenyl}-1H-indole-1-carboxamide] | 150 | 22 | 23 |  |
| Cc1ccc(NC(=O)Nc2ccc(-c3cc4ccccc4n3C(N)=O)cc2)cc1 [Example 11, 2-[4-({[(4-methylphenyl)amino]carbonyl}amino)phenyl]-1H-indole-1-carboxamide] |  | 23 | 11 | > 10000 |
| Cc1ccccc1NC(=O)Nc1ccc(-c2cc3ccccc3n2C(N)=O)cc1 [Example 12, 2-[4-({[(2-methylphenyl)amino]carbonyl}amino)phenyl]-1H-indole-1-carboxamide] |  | 174 | 118 |  |
| Cc1cccc(NC(=O)Nc2cccc(-c3cc4ccccc4n3C(N)=O)c2)c1 [Example 19, 2-[3-({[(3-methylphenyl)amino]carbonyl}amino)phenyl]-1H-indole-1-carboxamide] |  | 276 |  |  |
| CCc1cccc(NC(=O)Nc2cccc(-c3cc4ccccc4n3C(N)=O)c2)c1 [Example 20, 2-[3-({[(3-ethylphenyl)amino]carbonyl}amino)phenyl]-1H-indole-1-carboxamide] |  | 240 |  |  |
| NC(=O)n1c(-c2cccc(NC(=O)Nc3cccc(C(F)(F)F)c3)c2)cc2ccccc21 [Example 21, 2-{3-[({[3-(trifluoromethyl)phenyl]amino}carbonyl)amino]phenyl}-1H-indole-1-carboxamide] |  | 254 | 3310 |  |
| NC(=O)n1c(-c2cccc(NC(=O)Nc3ccc(F)c(Cl)c3)c2)cc2ccccc21 [Example 22, 2-[3-({[(3-chloro-4-fluorophenyl)amino]carbonyl}amino)phenyl]-1H-indole-1-carboxamide] |  | 249 | > 10000 |  |
| Cc1ccc(F)c(NC(=O)Nc2cccc(-c3cc4ccccc4n3C(N)=O)c2)c1 [Example 23, 2-[3-({[(2-fluoro-5-methylphenyl)amino]carbonyl}amino)phenyl]-1H-indole-1-carboxamide] |  | 334 | 3030 |  |
| Cc1cccc(C(=O)Nc2cccc(-c3cc4ccccc4n3C(N)=O)c2)c1 [Example 24, 2-{3-[(3-methylbenzoyl)amino]phenyl}-1H-indole-1-carboxamide] |  | 1170 |  |  |
| Cc1cccc(NC(=O)Nc2csc(-c3cc4ccccc4n3C(N)=O)c2)c1 [Example 26, 2-[4-({[(3-methylphenyl)amino]carbonyl}amino)-2-thienyl]-1H-indole-1-carboxamide] |  |  | 1140 |  |
| NC(=O)n1c(-c2cc(NC(=O)Nc3cccc(C(F)(F)F)c3)cs2)cc2ccccc21 [Example 27, 2-{4-[({[3-(trifluoromethyl)phenyl]amino}carbonyl)amino]-2-thienyl}-1H-indole-1-carboxamide] |  |  | 152 |  |
| CCc1cccc(NC(=O)Nc2csc(-c3cc4ccccc4n3C(N)=O)c2)c1 [Example 28, 2-[4-({[(3-ethylphenyl)amino]carbonyl}amino)-2-thienyl]-1H-indole-1-carboxamide] |  | 60 | 264 |  |
| Cc1ccc(F)c(NC(=O)Nc2csc(-c3cc4ccccc4n3C(N)=O)c2)c1 [Example 29, 2-[4-({[(2-fluoro-5-methylphenyl)amino]carbonyl}amino)-2-thienyl]-1H-indole-1-carboxamide] |  | 94 | 4610 |  |
| NC(=O)n1c(-c2cc(NC(=O)Nc3ccc(F)c(Cl)c3)cs2)cc2ccccc21 [Example 30, 2-[4-({[(3-chloro-4-fluorophenyl)amino]carbonyl}amino)-2-thienyl]-1H-indole-1-carboxamide] |  | 83 | > 10000 |  |
| NC(=O)n1c(-c2cc(NC(=O)Nc3ccc(Cl)c(C(F)(F)F)c3)cs2)cc2ccccc21 [Example 31, 2-{4-[({[4-chloro-3-(trifluoromethyl)phenyl]amino}carbonyl)amino]-2-thienyl}-1H-indole-1-carboxamide] |  |  | 151 |  |
| Cc1ccoc1C(=O)Nc1csc(-c2cc3ccccc3n2C(N)=O)c1 [Example 32, 2-{4-[(3-methyl-2-furoyl)amino]-2-thienyl}-1H-indole-1-carboxamide] |  | 3180 | > 10000 |  |
| Cc1ccc(F)c(C(=O)Nc2csc(-c3cc4ccccc4n3C(N)=O)c2)c1 [Example 33, 2-{4-[(2-fluoro-5-methylbenzoyl)amino]-2-thienyl}-1H-indole-1-carboxamide] |  | 3650 | > 10000 |  |
